Entries after “also recorded” stand apart in the source; their conditions may differ.
Key:
[1] = system: primary acute myeloid leukaemia (AML) blasts; experiment: In vitro cytotoxicity assay (LD50) in primary acute myeloid leukaemia cells; format: cell-based, human; settings: primary AML blasts, 48 h; concentration required to kill 50% of the tumour cells in culture
Experimental: ProTide compounds, as defined herein, and the comparator ProTide compound NUC-1031 were assayed for their cytotoxic effects on primary cultures of acute myeloid leukaemia (AML) blasts. LD50 values (the concentration required to kill 50% of the tumour cells in culture) were calculated in respect of the ProTide compounds of the invention, and the parent compounds from which they are derived. […] The LD50 values of the ProTide compounds as defined herein (and their parent compounds) were compared with the comparator ProTide NUC-1031 and its parent compound gemcitabine.
Bone marrow samples were collected in ethylenediaminetetraacetic acid (EDTA) from newly diagnosed, previously untreated, acute myeloid leukaemia (AML) patients. AML blasts were enriched by density gradient centrifugation using Histopaque (Sigma, Poole, UK) and were subsequently maintained in Roswell Park Memorial Institute medium (RPMI) supplemented with 10% foetal bovine serum (FBS). Cells were treated with ProTide compounds (either as encompassed by the present invention, or the comparator ProTide NUC-1031) or with the ProTides' parent compounds at a range of experimental concentrations, and incubated for 48 h. All cultures were maintained at 37° C. in a 5% CO2 humidified atmosphere.
Cells were harvested and labelled with CD34-fluorescein isothiocyanate (FITC) (BD Biosciences, Buckingham, UK) and then resuspended in 200 μl of binding buffer containing 4 μl of annexin V labelled with allophycocyanin (APC) (eBioscience Ltd, Hatfield, UK). Apoptosis was quantified in the CD34^+ AML cells using an Accuri C6 flow cytometer (Becton Dickinson, CA, USA). At least 10,000 events were acquired and data were subsequently analysed using FlowJo software (Tree Star Inc., Ashland, Oreg., USA). All LD50 values (concentration of drug required to kill 50% of cells) were derived from the dose-response curves.

[2] = system: Lin^−/CD34^+/CD38^−/CD123^+ cancer stem cells in KG1a cells; experiment: Immunophenotypic quantification of the leukaemic stem cell compartment in KG1a cells; format: cell-based, human; settings: KG1a cells
Experimental: The respective abilities of NUC-1031 and gemcitabine to target CSCs were investigated in the AML cell line KG1a.
KG1a cells were cultured for 72 hours in the presence of a wide range of concentrations of each nucleoside analogue and their respective ProTides. Cells were then harvested and labelled with a cocktail of anti-lineage antibodies (PE-cy7), anti-CD34 (FITC), anti-CD38 (PE) and anti-CD123 (PERCP cy5). The sub-population expressing a leukaemic stem cell (LSC) phenotype were subsequently identified and were expressed as a percentage of all viable cells left in the culture. The percentages of stem cells remaining were then plotted on a dose-response graph and the proportion of cancer stem cells was compared across the various concentrations of ProTides and their respective parent compounds, in order to determine if they preferentially target cancer stem cells.
The data obtained in these experiments were evaluated using one way ANOVA. All data was confirmed as Gaussian or a Gaussian approximation using the omnibus K2 test. LD50 values were calculated from the non-linear regression and line of best-fit analysis of the sigmoidal dose-response curves. All statistical analyses were performed using Graphpad Prism 6.0 software (Graphpad Software Inc., San Diego, Calif.).

## C[C@H](NP(=O)(OC[C@H]1O[C@@H](n2ccc(N)nc2=O)C(F)(F)[C@@H]1O)Oc1ccccc1)C(=O)OCc1ccccc1 (stereo partly drawn) [NUC-1031, 2′-deoxy-2′,2′-difluoro-D-cytidine-5′-O-[phenyl (benzoxy-L-alaninyl)] phosphate]
[1]
  LD50: NUC-1031 0.28 μM
[2]
  selectivity against cancer stem cells compared to the parent compound: preferential targeting of CSCs; also recorded: statistically significantly greater

From patent publication US11400107B2, “Cancer treatments” (NuCana plc, priority 2016, dated 2022)
